Experimental data: patent publication US4900719A, “Nitrosothiols as hypotensive agents” (The Ohio State University, priority 1988, dated 1990)

Columns and labels:
[1] = tested on: anesthetized dogs and monkeys; test: venous infusion in anesthetized dogs and monkeys, collected animal data (response time, onset/dissipation, effective dosage); assay type: in vivo
Method: (§1) Fifty milligrams of SNP (Nipride, Roche Laboratories) was reconstituted in 250 ml of 5% dextrose in water. A GSNO solution was diluted as 50 ug/ml in 5% dextrose in water. Seven mongrel dogs (18.1-31.8 kg) and seven cynomologus monkeys (Macaca fascicularis; 4.4-9.0 kg) were used in the study. The animals were given a pre-anesthetic (monkeys--Ketamine HCl, 10 mg/kg I.M.; dogs--0.2 mg/kg fentanyl and 1 mg/kg droperidol, Innovar Vet I.V.) and anesthetized with a mixture of α-chloralose (50 mg/kg) and urethane (500 mg/kg) given as an intravenous injection. The left femoral artery and vein were cannulated with heparinized saline-filled catheters. Arterial pressure was obtained from the arterial catheter using an electromedics MS-20 solid state pressure transducer and recorded on a Gould 2400 chart recorder. Randomized venous infusions of GSNO (n=7) and SNP (n=5) were made using Harvard apparatus compact infusion pump model 976. The infusion was maintained until a new steady state value for mean arterial pressure had been obtained for each infusion rate. The infusion rate was varied over the following ranges: GSNO 1.5-38.9 μg/kg/min (8 levels) and SNP 1.7-43.8 μg/kg/min (6 levels).
Intravenous administrations of GSNO or SNP in a wide range of doses decreased systematic arterial pressure in a dose related fashion. FIGS. 1 and 2 show the dose-response curves for the dogs and monkeys, respectively, that occurred by SNP or GSNO administrations. In each figure (.) presents the data for SNP and (o) presents the data for GSNO. The blood pressure lowering effect of SNP and GSNO is greater in monkeys than in dogs. When 20 μg/kg/min of SNP or GSNO was administered, mean arterial pressure decreased 35-40 torr for dogs and 45 torr for monkeys. The noted response time for SNP was about 28.6±2.5 sec. and for GSNO about 33.4±6.0 sec.
From the collected animal data, it can be noted that in general the decrease in blood pressure is dosage dependent.

[2] = tested on: anesthetized monkeys; test: mean arterial pressure during venous infusion in anesthetized monkeys; assay type: in vivo, cynomologus monkeys (Macaca fascicularis)
Method: as §1
(§2) Intravenous administrations of GSNO or SNP in a wide range of doses decreased systematic arterial pressure in a dose related fashion. […]

[3] = storage stability of solid GSNO (absorbance at 544 nm); assay type: physicochemical
Method: In air at 4° no change in the characteristic original absorbance at 544 nm was observed after 32 days. At room temperature, 75% of that absorption remained after the same period.

[4] = tested on: anesthetized dogs; test: mean arterial pressure during venous infusion in anesthetized dogs; assay type: in vivo, mongrel dogs
Method: as §1, §2

[5] = tested on: anesthetized dogs; test: arterial blood pressure after intravenous injection in anesthetized dogs (Examples 2 and 3); assay type: in vivo; conditions: intravenous injection in dextrose
Method: A GSNO solution was diluted as 50 ug/ml in 5% dextrose in water. […] The animals were given a pre-anesthetic (monkeys--Ketamine HCl, 10 mg/kg I.M.; dogs--0.2 mg/kg fentanyl and 1 mg/kg droperidol, Innovar Vet I.V.) and anesthetized with a mixture of α-chloralose (50 mg/kg) and urethane (500 mg/kg) given as an intravenous injection. The left femoral artery and vein were cannulated with heparinized saline-filled catheters. Arterial pressure was obtained from the arterial catheter using an electromedics MS-20 solid state pressure transducer and recorded on a Gould 2400 chart recorder. […] The infusion was maintained until a new steady state value for mean arterial pressure had been obtained for each infusion rate.
By following in general the procedure described for GSNO in Example 1, animal experiments are performed on a plurality of anesthetized dogs with each intravenous injection of S-Nitrosocaptopril in dextrose as well as the arterial blood pressure of the dogs being recorded.
The specific injections as well as the arterial blood pressure of the dogs are recorded.

[6] = stability of other nitrosothiols (qualitative statement); assay type: physicochemical

Row | SMILES | onset and dissipation of effect ([1]; anesthetized dogs and monkeys, compared with SNP) | effective dosage to significantly lower arterial pressure ([1]; infusion administration, from the collected animal data) | response time ([1]; venous infusion, species not stated) | blood pressure lowering (in words) ([2]; anesthetized monkeys, venous infusion, to about the same extent as SNP) | decrease in mean arterial pressure ([2]; monkeys, 20 μg/kg/min venous infusion) [torr] | change in characteristic original absorbance at 544 nm ([3]; in air at 4°, after 32 days) | absorption at 544 nm remaining ([3]; room temperature, after 32 days) [%] | effect of exclusion of light and air on stability ([3]; storage for more than 30 days) | blood pressure lowering (in words) ([4]; anesthetized dogs, venous infusion, to about the same extent as SNP) | decrease in mean arterial pressure ([4]; dogs, 20 μg/kg/min venous infusion) | lowering of arterial blood pressure (in words) [5] | stability (in words) [6]
1 | N[C@@H](CCC(=O)N[C@@H](CSN=O)C(=O)NCC(=O)O)C(=O)O [GSNO, S-nitrosoglutathione] | essentially the same as obtained with SNP | at least 7 μg/1 kg animal weight/minute | about 33.4±6.0 sec. | significantly lowered blood pressure | 45 | no change | 75 | virtually no noticeable effect | significantly lowered blood pressure | 35-40 torr |  | 
2 | C[C@H](CSN=O)C(=O)N1CCC[C@H]1C(=O)O [S-Nitrosocaptopril, D-(S-nitroso) 3-mercaptomethylpropionyl-L-proline] |  |  |  |  |  |  |  |  |  |  | Significant lowering of arterial blood pressure | quite stable
